Test results published in patent US20240269304A1, “BCL-XL INHIBITOR ANTIBODY-DRUG CONJUGATES AND METHODS OF USE THEREOF” (Novartis AG, priority 2020, published 2024).

Tests used:
corl279 = experiment: In vitro ADC activity with combination partners (Venetoclax, Topotecan), CellTiter-Glo 5 days, corl279 (Example 13); type: cell-based; conditions: single agent
Procedure: (§1) Antibody drug conjugates (ADCs) targeting IgG, B7H3, CD56, DLK1, DLL3, EpCAM, and SEZ6 were tested against cancer cell lines obtained from ATCC (American Type Culture Collection) or from other commercial cell line vendors (cor1279, ncih1436, ncih146, ncih211, ncih524). The cells were cultured in media that is optimal for their growth at 5% CO2, 37° C. in a tissue culture incubator. Prior to seeding for the proliferation assay, the cells were split at least 2 days before the assay to ensure optimal growth density. On the day of seeding, cells were lifted off tissue culture flasks using 0.25% trypsin. Cell viability and cell density were determined using a cell counter (Vi-Cell XR Cell Viability Analyzer, Beckman Coulter). Cells with higher than 85% viability were seeded in white clear bottom 384-well plates (Greiner cat #781098) at a density of 1000 cells per well in 50 μL of standard growth media. Plates were incubated at 37° C. overnight in a tissue culture incubator.
(§2) The ADCs were prepared in standard phosphate buffered solution to desired concentrations. A series of 10 dilutions were made for each ADC. The prepared drug treatments were then added to the cells resulting in final concentrations of 300 nM to 0.015 nM. Combination partners (Venetoclax and Topotecan) were added at fixed concentrations. Acoustic transfer devices (Echo525, Echo550, Beckman Coulter) were used to add the ADCs or combination partners to the cells. Each treatment was tested in triplicate assay plates. Plates were incubated at 37° C. overnight or for 5 days in a tissue culture incubator. The ability of the ADCs to inhibit cell proliferation and survival was assessed using the Promega CellTiter-Glo® proliferation assay. Plates were incubated at room temperature for 20 minutes to stabilize luminescent signals prior to reading using a multimode plate reader (Pherastar, BMG). Luminescent counts of untreated cells were taken the day after seeding (Day 0 readings), and after 5 days of treatment (Day 5 readings). The Day 5 readings of the untreated cells were compared to the Day 0 readings. Assays with at least one cell doubling during the incubation period were considered valid. To evaluate the effect of the drug treatments, luminescent counts from wells containing untreated cells (100% viability) were used to normalize treated samples. The concentrations of treatment required to inhibit 50% of cell growth or survival ([…]) were calculated using a four parameter logistic regression equation.

ncih146 = experiment: In vitro ADC activity with combination partners, CellTiter-Glo 5 days, ncih146 (Example 13); type: cell-based; conditions: single agent
Procedure: as §1, §2

ncih211 = experiment: In vitro ADC activity with combination partners, CellTiter-Glo 5 days, ncih211 (Example 13); type: cell-based; conditions: single agent
Procedure: as §1, §2

ncih524 = experiment: In vitro ADC activity with combination partners, CellTiter-Glo 5 days, ncih524 (Example 13); type: cell-based; conditions: single agent
Procedure: as §1, §2

ncih1436 = experiment: In vitro ADC activity with combination partners, CellTiter-Glo 5 days, ncih1436 (Example 13); type: cell-based; conditions: single agent
Procedure: as §1, §2

[1] = test system: H1650 human non-small cell lung carcinoma (NSCLC) model; experiment: In vivo efficacy of EGFR2-Bcl-xL inhibitor ADC in combination with docetaxel, H1650 xenografts (Example 15); parameters: species or system female SCID mice; conditions: Vehicle iv + docetaxel 7.5 mg/kg qdx1 iv 24 h later
Procedure: H1650 cells were cultured at 37° C. in an atmosphere of 5% CO2 in air in RPMI1640 (BioConcept Ltd. Amimed, #1-41F01-1) supplemented with 10% FCS (BioConcept Ltd. Amimed, #2-01F30-1), 2 mM L-glutamine (BioConcept Ltd. Amimed, #5-10K00-H) and 1 mM sodium pyruvate (BioConcept Ltd. Amimed, #5-60F00-H), 10 mM HEPES (Gibco #11560496) and D-glucose 1.25g/500 mL medium (Gibco, #A24940-01). To establish H1650 xenografts, cells were harvested and re-suspended in HBSS (Gibco, #14175)/Matrigel (Corning #354234) (1:1 v/v) before injecting 100 μL containing 5×10^6 cells subcutaneously in the flanks of female SCID mice (Taconic, Europe). Tumor growth was monitored regularly post cell inoculation and animals were randomized into treatment groups (n=6) with a mean tumor volume of about 150 mm^3. The ADCs were administered intravenously (i.v.) once at the start of treatment at 30 mg/kg in combination with 7.5 mg/kg docetaxel (Zentiva: 1 ml/20 mg) which was administered i.v. once 24 h after the ADCs. Doses were adjusted to individual mouse body weights. The i.v. dose volume was 10 ml/kg and each ADC was dissolved in 0.9% (w/v) NaCl in water and the docetaxel stock solution was diluted to appropriate concentration with 5% (w/v) sterile glucose solution prior to administration.
Tumor volume data on day 21 and 28 post treatment initiation were analyzed for statistical difference relative to vehicle control group and EGFR-Bcl-xLi (L109A-P1) ADC, using one way ANOVA post hoc Tukey's multiple comparisons test (Indigo Software). Results are presented as mean±SEM.
As a measure of efficacy the %T/C value was calculated on day 21 according to:
(Δtumor volume treated/Δtumor volume control)*100 Tumor regression was calculated according to:
−(Δtumor volume treated/tumor volume treated at start)*100
Where Δtumor volumes represent the mean tumor volume on the evaluation day minus the mean tumor volume at the start of the experiment.

Row | Structure (SMILES) | GI50 (corl279; Homo sapiens, COR-L279, 120 h) [µM] | GI Amax corl279 (corl279) | GI50 (ncih146; Homo sapiens, NCI-H146, 120 h) [µM] | GI Amax ncih146 (ncih146) | GI50 (ncih211; Homo sapiens, NCI-H211, 120 h) [µM] | GI Amax ncih211 (ncih211) | GI50 (ncih524; Homo sapiens, NCI-H524, 120 h) [µM] | GI Amax ncih524 (ncih524) | GI50 (ncih1436; Homo sapiens, NCI-H1436, 120 h) [µM] | GI Amax ncih1436 (ncih1436) | GI50 (corl279) [µM] | GI50 (ncih146) [µM] | GI50 (ncih211) [µM] | GI50 (ncih524) [µM] | GI50 (ncih1436) [µM] | Response on day 21 T/C (%) ([1]; day 21) | ΔTumor volume (mm^3) D21 ([1]; day 21, mean) [mm^3] | Maximum regression (day) ([1]; maximum on D7) | Significance On D21 vs Isotype-DANAPA-L109A-P1-ADC group ([1]; vs IgG CysMab DANAPA-L109A-P1 ADC + docetaxel, printed with (growth))
1 | CC[C@@]1(O)C(=O)OCc2c1cc1n(c2=O)Cc2cc3c(CN(C)C)c(O)ccc3nc2-1 [Topotecan, topotecan] | 0.0152 | −95.95 | 0.00304 | −91.77 | 0.0125 | −89.36 | 0.00827 | −83.85 | 0.515 | −23.22 |  |  |  |  |  |  |  |  | 
2 | CC1(C)CCC(CN2CCN(c3ccc(C(=O)NS(=O)(=O)c4ccc(NCC5CCOCC5)c([N+](=O)[O-])c4)c(Oc4cnc5[nH]ccc5c4)c3)CC2)=C(c2ccc(Cl)cc2)C1 [Venetoclax, venetoclax] |  | 98.71 |  | −16.83 |  | 30.85 |  | 105.21 |  | 13 | > 10 | 0.789 | 3.92 | > 10 | 4.92 |  |  |  | 
3 | CC(=O)O[C@@]12CO[C@@H]1C[C@H](O)[C@@]1(C)C(=O)[C@H](O)C3=C(C)[C@@H](OC(=O)[C@H](O)[C@@H](NC(=O)OC(C)(C)C)c4ccccc4)C[C@@](O)([C@@H](OC(=O)c4ccccc4)[C@H]21)C3(C)C [docetaxel] |  |  |  |  |  |  |  |  |  |  |  |  |  |  |  | 51 | 396.59 | −1 | P < 0.05 (growth)
